{
  "source": "patent US20190183843A9",
  "about": "“USE OF DIANHYDROGALACTITOL OR DERIVATIVES OR ANALOGS THEREOF FOR TREATMENT OF PEDIATRIC CENTRAL NERVOUS SYSTEM MALIGNANCIES” (DelMar Pharmaceuticals, Inc., priority 2015, published 2019)",
  "key": {"A2780 cells": {"system": "A2780 cells", "test": "MTT growth inhibition assay, 5-day drug exposure", "assay_type": "cell-based, human", "details": "5-day exposure, cisplatin-sensitive A2780", "text": "(§1) The analysis of cytotoxicity, depicted as IC50 (concentration inhibiting growth of cells by 50%) or as fraction of cells affected (Fa) at a specified concentration of drug, is based on the data generated from the MTT growth inhibition assay following a 5-day drug exposure period. The IC50 values were generated by fitting Fa values from a range of drug concentrations to a four-parameter logistic dose-response sigmoidal equation using the Graphpad Prism v.6 software. Resistance factors (for the ovarian panel) were calculated as the ratio of IC50 in the specific tumor model to the IC50 in A2780.\n(§2) Cytotoxicity was determined against cisplatin-sensitive A2780 and cisplatin-resistant 2780CP-16, OVCAR-10, Hey and OVCA-433 tumor models with different status for p53 and mismatch repair (MMR) DNA repair system (A2780: p53 wild-type, MMR proficient; 2780CP-16: heterogenic p53 wt/V172Fmut, MMR deficient; OVCAR-10: p53 V172F mutant, MMR proficient; HEY: p53 P72R mutant, MMR proficient; OVCA-433: p53 P72R mutant, MMR proficient). IC50 for dianhydrogalactitol was about 0.5 μM in A2780 cells and in the 2-4 μM range for the cisplatin-resistant models. The activity (as IC50) of dianhydrogalactitol relative to cisplatin and oxaliplatin is shown as bar plots in FIG. 38. […] Oxaliplatin, in contrast, had good potencies against both cisplatin-sensitive (0.2 μM) and cisplatin-resistant cells (0.2-0.6 μM)."}, "[1]": {"system": "cisplatin-resistant 2780CP-16, OVCAR-10, Hey and OVCA-433 tumor models", "test": "MTT growth inhibition assay, 5-day drug exposure", "assay_type": "cell-based, human", "details": "5-day exposure", "text": "as §1, §2"}, "[2]": {"details": "cited from earlier work"}, "[3]": {"system": "MGMT-positive or -negative, MMR-proficient or -deficient cells", "details": "cited from earlier work"}, "[4]": {"target": "glycogen synthase kinase-30 (GSK-30) (Homo sapiens, UniProt P49841)", "sequence (P49841 whole entry)": "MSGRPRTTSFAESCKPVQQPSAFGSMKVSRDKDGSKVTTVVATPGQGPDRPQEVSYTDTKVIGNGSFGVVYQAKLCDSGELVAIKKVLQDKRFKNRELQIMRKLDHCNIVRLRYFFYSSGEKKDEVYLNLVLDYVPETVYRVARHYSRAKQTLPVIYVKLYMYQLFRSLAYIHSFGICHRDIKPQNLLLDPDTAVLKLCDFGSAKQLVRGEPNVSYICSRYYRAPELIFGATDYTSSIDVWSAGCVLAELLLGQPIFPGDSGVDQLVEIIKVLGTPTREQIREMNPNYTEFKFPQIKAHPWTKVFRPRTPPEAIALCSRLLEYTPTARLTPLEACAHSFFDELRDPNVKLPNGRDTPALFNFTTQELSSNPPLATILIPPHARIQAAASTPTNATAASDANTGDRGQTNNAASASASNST", "details": "cited from earlier work"}},
  "note": "Where two headings read alike, the source gives them in different places.",
  "data": [
    {"smiles": "O=C1[O][Pt]2([NH][C@@H]3CCCC[C@H]3[NH]2)[O]C1=O", "note": "[oxaliplatin, reference compound]", "values": [
      {"measurement": "IC50", "setting": "A2780 cells", "result": 0.2, "unit": "µM"},
      {"measurement": "IC50", "setting": "[1]", "result": "0.2 to 0.6", "unit": "µM"}
    ]},
    {"smiles": "O[C@H]([C@H](O)[C@@H](O)CBr)[C@H](O)CBr", "note": "[dibromodulcitol]", "values": [
      {"measurement": "absorption by the oral route", "setting": "[2]", "result": "rapid and fairly complete"}
    ]},
    {"smiles": "N.N.[Cl][Pt][Cl]", "note": "[cisplatin]", "values": [
      {"measurement": "IC50", "setting": "[1]", "result": "3 to 8", "unit": "µM"},
      {"measurement": "sensitivity", "setting": "[3]; MGMT Negative, MMR-Deficient", "result": "Resistant"},
      {"measurement": "sensitivity", "setting": "[3]; MGMT Negative, MMR-Proficient", "result": "Sensitive"},
      {"measurement": "sensitivity", "setting": "[3]; MGMT Positive, MMR-Deficient", "result": "Resistant"},
      {"measurement": "sensitivity", "setting": "[3]; MGMT Positive, MMR-Proficient", "result": "Sensitive"}
    ]},
    {"smiles": "CN1C(=O)/C(=C2/C(=O)Nc3ccccc32)c2ccccc21", "note": "[Meisoindigo]", "values": [
      {"measurement": "concentration inhibiting GSK", "setting": "[4]", "result": "5 to 50", "unit": "nM"}
    ]}
  ]
}
